According to ChEMBL document CHEMBL3132769, “Fragment growing to retain or alter the selectivity of anchored kinase hinge-binding fragments” (Medchemcomm, 2014):

Tests used:
[1] = system: Tyrosine-protein kinase ABL1 (Homo sapiens), P00519 [Q252H]; assay: Inhibition of human truncated ABL Q252H mutant expressed in baculovirus assessed as substrate phosphorylation using fluorescence-labelled peptides as substrate at 0.06 uM after 90 mins by microfluidic peptide phosphorylation assay
[2] = molecular target: MAP kinase-activated protein kinase 2 (Homo sapiens) (UniProt P49137); assay: Inhibition of human full length MAPKAPK2 expressed in baculovirus assessed as substrate phosphorylation using fluorescence-labelled peptides as substrate at 0.06 uM after 90 mins by microfluidic peptide phosphorylation assay
MAP kinase-activated protein kinase 2 (Homo sapiens), sequence (P49137 whole entry, looked up): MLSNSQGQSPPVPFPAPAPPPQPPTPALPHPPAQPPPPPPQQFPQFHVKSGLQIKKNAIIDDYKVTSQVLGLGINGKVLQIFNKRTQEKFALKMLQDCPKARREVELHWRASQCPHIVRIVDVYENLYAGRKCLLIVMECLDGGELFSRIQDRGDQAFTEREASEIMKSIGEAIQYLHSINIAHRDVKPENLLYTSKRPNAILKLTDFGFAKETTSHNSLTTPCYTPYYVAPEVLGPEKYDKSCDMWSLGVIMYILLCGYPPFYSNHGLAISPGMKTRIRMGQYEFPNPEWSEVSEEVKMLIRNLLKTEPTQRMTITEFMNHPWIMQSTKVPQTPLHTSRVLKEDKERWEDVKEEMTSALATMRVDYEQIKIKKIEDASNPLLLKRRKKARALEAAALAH

[3] = molecular target: T1, Serine/threonine-protein kinase DCLK2 (Homo sapiens) (UniProt Q8N568); assay: Inhibition of human full length DCAMKL2 expressed in baculovirus assessed as substrate phosphorylation using fluorescence-labelled peptides as substrate at 0.06 uM after 90 mins by microfluidic peptide phosphorylation assay
T1 sequence (whole entry): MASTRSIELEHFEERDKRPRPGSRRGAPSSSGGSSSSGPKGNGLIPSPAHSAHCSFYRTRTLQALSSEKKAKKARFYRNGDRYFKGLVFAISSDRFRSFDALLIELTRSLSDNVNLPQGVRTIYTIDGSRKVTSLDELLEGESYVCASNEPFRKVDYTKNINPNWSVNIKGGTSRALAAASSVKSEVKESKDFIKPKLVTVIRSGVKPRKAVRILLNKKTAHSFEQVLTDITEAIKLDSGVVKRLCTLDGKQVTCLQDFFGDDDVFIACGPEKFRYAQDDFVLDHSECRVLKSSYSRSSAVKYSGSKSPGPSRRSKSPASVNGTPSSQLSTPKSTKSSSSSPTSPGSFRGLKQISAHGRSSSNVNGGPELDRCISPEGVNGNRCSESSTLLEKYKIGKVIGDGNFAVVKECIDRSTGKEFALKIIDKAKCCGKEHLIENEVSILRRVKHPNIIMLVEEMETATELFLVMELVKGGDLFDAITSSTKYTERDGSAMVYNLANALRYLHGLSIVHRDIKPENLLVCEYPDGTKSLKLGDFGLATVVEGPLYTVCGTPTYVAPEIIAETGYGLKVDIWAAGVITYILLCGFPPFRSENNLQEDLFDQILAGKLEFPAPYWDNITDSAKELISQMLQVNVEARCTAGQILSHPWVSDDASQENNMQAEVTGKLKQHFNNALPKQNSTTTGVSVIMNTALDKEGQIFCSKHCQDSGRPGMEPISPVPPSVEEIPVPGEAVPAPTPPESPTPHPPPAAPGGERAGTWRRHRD

[4] = molecular target: Fibroblast growth factor receptor 2 (Homo sapiens) (UniProt P21802); assay: Inhibition of human FGFR2 catalytic domain expressed in baculovirus assessed as substrate phosphorylation using fluorescence-labelled peptides as substrate at 70 uM after 90 mins by microfluidic peptide phosphorylation assay
Fibroblast growth factor receptor 2 (Homo sapiens), sequence (P21802 22-821 limits assumed): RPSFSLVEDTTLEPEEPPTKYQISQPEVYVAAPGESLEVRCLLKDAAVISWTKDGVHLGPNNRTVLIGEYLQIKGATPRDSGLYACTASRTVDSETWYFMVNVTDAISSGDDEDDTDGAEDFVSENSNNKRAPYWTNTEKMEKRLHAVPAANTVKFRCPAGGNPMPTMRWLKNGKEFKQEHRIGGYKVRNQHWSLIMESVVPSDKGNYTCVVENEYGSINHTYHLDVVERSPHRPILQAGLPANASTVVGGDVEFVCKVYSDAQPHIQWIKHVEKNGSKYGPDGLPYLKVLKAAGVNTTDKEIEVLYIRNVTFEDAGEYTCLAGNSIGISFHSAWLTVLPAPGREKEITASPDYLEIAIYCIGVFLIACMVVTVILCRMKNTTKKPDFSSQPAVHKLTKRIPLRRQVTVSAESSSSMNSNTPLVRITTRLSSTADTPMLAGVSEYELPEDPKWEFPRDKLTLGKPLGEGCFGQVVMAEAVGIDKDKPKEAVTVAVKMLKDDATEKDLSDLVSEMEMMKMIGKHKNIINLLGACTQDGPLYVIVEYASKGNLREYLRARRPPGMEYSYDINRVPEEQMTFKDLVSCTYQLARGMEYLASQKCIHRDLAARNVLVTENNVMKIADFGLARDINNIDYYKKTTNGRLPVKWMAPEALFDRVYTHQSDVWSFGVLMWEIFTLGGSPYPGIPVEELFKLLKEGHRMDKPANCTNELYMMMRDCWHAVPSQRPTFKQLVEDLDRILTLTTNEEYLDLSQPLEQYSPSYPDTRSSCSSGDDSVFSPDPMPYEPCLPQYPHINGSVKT

[5] = system: Tyrosine-protein kinase ABL1 (Homo sapiens), P00519 [Q252H]; assay: Inhibition of human truncated ABL Q252H mutant expressed in baculovirus assessed as substrate phosphorylation using fluorescence-labelled peptides as substrate at 70 uM after 90 mins by microfluidic peptide phosphorylation assay
[6] = molecular target: MAP/microtubule affinity-regulating kinase 3 (Homo sapiens) (UniProt P27448); assay: Inhibition of human full length c-TAK1 expressed in Escherichia coli cell assessed as substrate phosphorylation using fluorescence-labelled peptides as substrate at 420 uM after 90 mins by microfluidic peptide phosphorylation assay
MAP/microtubule affinity-regulating kinase 3 (Homo sapiens), sequence (P27448 whole entry, looked up): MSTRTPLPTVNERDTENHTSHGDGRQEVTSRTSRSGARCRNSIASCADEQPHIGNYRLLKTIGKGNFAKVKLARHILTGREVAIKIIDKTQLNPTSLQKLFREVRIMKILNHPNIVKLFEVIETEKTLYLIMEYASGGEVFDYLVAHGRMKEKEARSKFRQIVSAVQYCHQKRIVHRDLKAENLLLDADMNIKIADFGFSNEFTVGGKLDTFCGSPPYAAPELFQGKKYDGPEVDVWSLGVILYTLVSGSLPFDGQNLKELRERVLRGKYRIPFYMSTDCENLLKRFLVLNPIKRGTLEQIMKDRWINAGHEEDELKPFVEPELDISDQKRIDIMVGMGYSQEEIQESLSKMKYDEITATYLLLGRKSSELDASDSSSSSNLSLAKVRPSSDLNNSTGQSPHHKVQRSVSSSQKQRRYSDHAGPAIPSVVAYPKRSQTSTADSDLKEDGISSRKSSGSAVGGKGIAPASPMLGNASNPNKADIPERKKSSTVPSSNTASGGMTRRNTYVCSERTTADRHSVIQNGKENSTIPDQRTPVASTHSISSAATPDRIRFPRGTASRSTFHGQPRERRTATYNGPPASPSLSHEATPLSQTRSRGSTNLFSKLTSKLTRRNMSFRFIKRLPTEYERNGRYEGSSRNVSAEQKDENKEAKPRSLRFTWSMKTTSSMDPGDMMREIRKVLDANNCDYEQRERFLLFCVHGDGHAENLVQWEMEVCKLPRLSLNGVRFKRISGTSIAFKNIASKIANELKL

[7] = molecular target: T2, Inhibitor of nuclear factor kappa-B kinase subunit beta (Homo sapiens) (UniProt O14920); assay: Inhibition of human full length IKK beta expressed in baculovirus assessed as substrate phosphorylation using fluorescence-labelled peptides as substrate at 1000 uM after 90 mins by microfluidic peptide phosphorylation assay
T2 sequence (whole entry): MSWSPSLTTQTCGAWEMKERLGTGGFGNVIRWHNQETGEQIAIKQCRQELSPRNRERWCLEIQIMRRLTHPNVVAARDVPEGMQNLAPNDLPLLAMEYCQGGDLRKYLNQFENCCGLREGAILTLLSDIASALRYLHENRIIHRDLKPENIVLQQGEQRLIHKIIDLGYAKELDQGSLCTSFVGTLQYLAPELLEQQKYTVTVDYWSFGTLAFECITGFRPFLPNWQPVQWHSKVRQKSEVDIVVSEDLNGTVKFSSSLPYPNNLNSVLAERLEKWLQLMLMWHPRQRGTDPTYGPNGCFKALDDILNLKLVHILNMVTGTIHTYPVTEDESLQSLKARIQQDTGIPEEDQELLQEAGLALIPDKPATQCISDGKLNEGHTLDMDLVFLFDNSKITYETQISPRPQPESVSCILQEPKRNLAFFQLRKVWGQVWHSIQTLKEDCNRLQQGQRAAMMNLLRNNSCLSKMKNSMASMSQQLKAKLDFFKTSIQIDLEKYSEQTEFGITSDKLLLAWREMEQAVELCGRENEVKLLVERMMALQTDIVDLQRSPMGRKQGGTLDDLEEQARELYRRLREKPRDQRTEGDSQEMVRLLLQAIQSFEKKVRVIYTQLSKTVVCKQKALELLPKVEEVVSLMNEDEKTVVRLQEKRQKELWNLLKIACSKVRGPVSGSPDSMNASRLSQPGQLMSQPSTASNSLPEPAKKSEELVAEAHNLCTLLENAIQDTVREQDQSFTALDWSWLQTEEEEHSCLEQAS

[8] = molecular target: Tyrosine-protein kinase ABL2 (Homo sapiens) (UniProt P42684); assay: Inhibition of human truncated Arg expressed in baculovirus assessed as substrate phosphorylation using fluorescence-labelled peptides as substrate at 1000 uM after 90 mins by microfluidic peptide phosphorylation assay
Tyrosine-protein kinase ABL2 (Homo sapiens), sequence (P42684 whole entry, the tested form may be a part): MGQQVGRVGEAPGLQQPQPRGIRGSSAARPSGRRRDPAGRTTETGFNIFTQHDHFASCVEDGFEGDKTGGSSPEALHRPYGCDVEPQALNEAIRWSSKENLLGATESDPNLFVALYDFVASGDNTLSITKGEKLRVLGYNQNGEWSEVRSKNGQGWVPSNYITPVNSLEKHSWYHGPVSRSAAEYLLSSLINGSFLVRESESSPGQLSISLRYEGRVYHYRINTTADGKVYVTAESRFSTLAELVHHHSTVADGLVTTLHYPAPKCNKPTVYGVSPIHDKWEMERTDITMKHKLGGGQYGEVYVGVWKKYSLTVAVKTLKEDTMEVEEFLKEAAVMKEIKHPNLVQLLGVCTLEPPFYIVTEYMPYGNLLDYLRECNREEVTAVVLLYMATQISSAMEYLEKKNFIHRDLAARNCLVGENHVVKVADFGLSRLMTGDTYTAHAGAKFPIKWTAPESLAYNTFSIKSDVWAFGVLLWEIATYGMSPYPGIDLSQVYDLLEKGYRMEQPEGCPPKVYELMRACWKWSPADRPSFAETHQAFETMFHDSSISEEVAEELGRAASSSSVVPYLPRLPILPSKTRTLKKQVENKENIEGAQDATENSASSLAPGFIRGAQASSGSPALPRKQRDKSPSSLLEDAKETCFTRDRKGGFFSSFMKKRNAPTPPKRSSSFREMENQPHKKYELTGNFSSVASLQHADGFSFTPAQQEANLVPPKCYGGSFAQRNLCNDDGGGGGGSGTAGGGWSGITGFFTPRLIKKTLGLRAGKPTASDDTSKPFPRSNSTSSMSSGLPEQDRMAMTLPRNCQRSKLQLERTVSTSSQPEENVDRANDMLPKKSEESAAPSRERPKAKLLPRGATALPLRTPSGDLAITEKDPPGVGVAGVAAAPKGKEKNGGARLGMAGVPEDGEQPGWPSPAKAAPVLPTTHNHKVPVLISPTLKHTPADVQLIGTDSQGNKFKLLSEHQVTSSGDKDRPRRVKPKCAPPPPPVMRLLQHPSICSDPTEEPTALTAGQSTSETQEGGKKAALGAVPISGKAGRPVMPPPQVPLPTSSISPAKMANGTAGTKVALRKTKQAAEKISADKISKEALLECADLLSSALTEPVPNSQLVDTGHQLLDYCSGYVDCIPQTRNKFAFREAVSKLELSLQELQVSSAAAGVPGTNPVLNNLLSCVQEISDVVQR

[9] = molecular target: T3, Serine/threonine-protein kinase Sgk3 (Homo sapiens) (UniProt Q96BR1); assay: Inhibition of human full length SGK3 expressed in baculovirus assessed as substrate phosphorylation using fluorescence-labelled peptides as substrate at […] after 90 mins by microfluidic peptide phosphorylation assay
T3 sequence (whole entry): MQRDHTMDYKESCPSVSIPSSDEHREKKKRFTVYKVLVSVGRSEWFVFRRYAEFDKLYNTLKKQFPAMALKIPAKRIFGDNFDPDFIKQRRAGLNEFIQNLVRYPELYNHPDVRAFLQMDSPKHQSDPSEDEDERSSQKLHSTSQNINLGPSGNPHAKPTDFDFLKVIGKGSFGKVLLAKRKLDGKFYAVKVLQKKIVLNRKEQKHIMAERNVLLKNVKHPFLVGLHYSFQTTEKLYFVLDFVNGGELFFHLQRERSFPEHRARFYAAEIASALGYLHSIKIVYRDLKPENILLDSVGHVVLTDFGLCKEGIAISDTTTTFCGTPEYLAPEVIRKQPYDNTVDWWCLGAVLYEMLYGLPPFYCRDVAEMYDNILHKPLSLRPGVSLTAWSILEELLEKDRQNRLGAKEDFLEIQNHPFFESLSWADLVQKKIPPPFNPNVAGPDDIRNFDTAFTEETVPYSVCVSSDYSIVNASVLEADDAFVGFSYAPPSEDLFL

[10] = molecular target: T2, Inhibitor of nuclear factor kappa-B kinase subunit beta (Homo sapiens); assay: Inhibition of human full length IKK beta expressed in baculovirus assessed as substrate phosphorylation using fluorescence-labelled peptides as substrate at 8 uM after 90 mins by microfluidic peptide phosphorylation assay
[11] = molecular target: Tyrosine-protein kinase ABL1 (Homo sapiens) (UniProt P00519); details: 0.1 uM
Description: Inhibition of human full-length ABL expressed in baculovirus assessed as substrate phosphorylation using fluorescence-labelled peptides as substrate at 0.1 uM after 90 mins by microfluidic peptide phosphorylation assay

Structure (SMILES): NC1(Cc2ccc(Cl)cc2)CCN(c2ncnc3[nH]ccc23)CC1
- inhibition [1]: 0%
- inhibition [2]: 0%
- inhibition [3]: 0%

Structure (SMILES): CNCc1ccc(-c2ncnc3[nH]cnc23)cc1
- inhibition [4]: 27%
- inhibition [5]: 39%

Structure (SMILES): c1nc(N2CCOCC2)c2nc[nH]c2n1
- inhibition [6]: 86.5%

Structure (SMILES): c1cnc2[nH]ccc2c1
- inhibition [7]: 95.5%
- inhibition [8]: 40%

Structure (SMILES): COC(=O)c1cnc(Nc2cnc(C#N)cn2)cc1NCC1CCNCC1
- inhibition [9]: 5%

Structure (SMILES): NCC1CCN(c2ncnc3[nH]ccc23)CC1
- inhibition [10]: 13.5%

Structure (SMILES): C[C@H](CN(C)C)Oc1nc(Nc2cc3cccc(Cl)c3cn2)cnc1C#N
- inhibition [11]: 0%
